# Laboratory results as given in patent US20240150340A1, “CDK Inhibitors And Their Use As Pharmaceuticals” (Prelude Therapeutics Incorporated, priority 2022, published 2024).
# Assays:
# OVCAR3 p-RB = experiment: pRB ICW Assay in OVCAR3 Cells; assay type: cell-based; conditions: Homo sapiens, OVCAR-3, incubated with compound for 2 hours
# How it was run: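 OVCAR3 cells were treated 2 h at 37° C. with a 9-point half-log compound series, duplicate wells, with 10 μM reference compound as maximum inhibition. Fixed, permeabilized cells were stained with anti-phospho-RB plus DRAQ5 and imaged at 700/800 nm (In-Cell Western).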
# CDK2/Cyclin E2 = biological target: T1, CDK2/Cyclin E2 (Homo sapiens, UniProt P24941); experiment: CDK2/CyclinE2 Enzymatic Activity Assay (TR-FRET); assay type: biochemical; conditions: ATP 1 mM final, read-out: CDK2_E1 IC50
# T1 construct: Recombinant protein complex CDK2/Cyclin E2, expressed from insect cell, was purchased from ProQinase
# How it was run: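 Recombinant insect-cell CDK2/Cyclin E2 (1 nM) phosphorylated ULight-4E-BP1 (50 nM) with 1 mM ATP in HEPES pH 7.4 buffer, after 20 min compound preincubation; MgCl2 (10 mM) started the 45 min reaction at 37° C. Europium anti-phospho-4E-BP1 TR-FRET read; 9-dose IC50 by 4-parameter fit.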
# CDK4/Cyclin D1 = biological target: T2, CDK4/Cyclin D1 (Homo sapiens, UniProt P11802); experiment: CDK4/CyclinD1 Enzymatic Activity Assay (TR-FRET); assay type: biochemical; conditions: ATP 2 mM final, read-out: CDK4_D1 IC50
# T2 construct: purchased ProQinase; host or cells: insect cell
# How it was run: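 Insect-cell-expressed CDK4/Cyclin D1 (1 nM) with ULight-4E-BP1 (100 nM) and 2 mM ATP in HEPES pH 7.4; 9-dose 3-fold compound series preincubated 20 min, reaction started with 10 mM MgCl2, 45 min at 37° C. Europium anti-P-4E-BP1 TR-FRET read; IC50 from 4-parameter Hill fit.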
# T2 sequence (P11802 whole entry): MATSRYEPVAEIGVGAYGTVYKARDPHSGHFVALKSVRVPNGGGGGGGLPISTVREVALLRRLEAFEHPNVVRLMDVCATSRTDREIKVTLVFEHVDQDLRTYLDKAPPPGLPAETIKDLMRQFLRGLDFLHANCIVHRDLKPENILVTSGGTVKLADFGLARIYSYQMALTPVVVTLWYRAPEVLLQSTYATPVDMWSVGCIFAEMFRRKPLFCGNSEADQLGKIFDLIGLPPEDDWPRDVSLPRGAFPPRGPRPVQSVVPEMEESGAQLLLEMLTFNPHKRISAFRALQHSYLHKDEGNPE
# T2 sequence (P24385 whole entry partner): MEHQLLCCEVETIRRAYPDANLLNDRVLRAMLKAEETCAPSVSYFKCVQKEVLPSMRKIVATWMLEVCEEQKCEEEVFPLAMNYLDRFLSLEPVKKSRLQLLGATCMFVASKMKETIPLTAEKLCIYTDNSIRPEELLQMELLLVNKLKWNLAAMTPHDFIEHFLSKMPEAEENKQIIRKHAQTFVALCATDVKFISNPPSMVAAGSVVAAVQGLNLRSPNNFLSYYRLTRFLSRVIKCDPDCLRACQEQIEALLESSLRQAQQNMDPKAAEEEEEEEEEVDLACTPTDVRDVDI
IC50 (OVCAR3 p-RB) [nM],IC50 (CDK2/Cyclin E2) [nM],IC50 (CDK4/Cyclin D1) [nM],SMILES
≤ 100,≤ 100,≤ 100,"Cn1cnc(S(=O)(=O)N2CC[C@H](Nc3ncc(C(F)(F)F)c(-c4cc(C#N)c(CC(C)(C)O)s4)n3)[C@H](F)C2)c1 [Example 42, 5-(2-(((3R,4S)-3-fluoro-1-((1-methyl-1H-imidazol-4-yl)sulfonyl)piperidin-4-yl)amino)-5-(trifluoromethyl)pyrimidin-4-yl)-2-(2-hydroxy-2-methylpropyl)thiophene-3-carbonitrile]"
> 500,≤ 100,100 to 500,"C[C@@H]1CN(S(C)(=O)=O)CC[C@@H]1Nc1ncc(C(F)(F)F)c(-c2cc(C(N)=O)c(CC(C)(C)O)s2)n1 [Example 43, 2-(2-hydroxy-2-methylpropyl)-5-(2-(((3R,4S)-3-methyl-1-(methylsulfonyl)piperidin-4-yl)amino)-5-(trifluoromethyl)pyrimidin-4-yl)thiophene-3-carboxamide]"
≤ 100,≤ 100,≤ 100,"C[C@@H]1CN(S(=O)(=O)c2cnn(C)c2)CC[C@@H]1Nc1ncc(C(F)(F)F)c(-c2cc(C(N)=O)c(CC(C)(C)O)s2)n1 [Example 44, 2-(2-hydroxy-2-methylpropyl)-5-(2-(((3R,4S)-3-methyl-1-((1-methyl-1H-pyrazol-4-yl)sulfonyl)piperidin-4-yl)amino)-5-(trifluoromethyl)pyrimidin-4-yl)thiophene-3-carboxamide]"
≤ 100,≤ 100,≤ 100,"Cn1cnc(S(=O)(=O)N2CCC(Nc3ncc(C(F)(F)F)c(-c4cc(C(N)=O)c(CC(C)(C)O)s4)n3)CC2)c1 [Example 45, 2-(2-hydroxy-2-methylpropyl)-5-(2-((1-((1-methyl-1H-imidazol-4-yl)sulfonyl)piperidin-4-yl)amino)-5-(trifluoromethyl)pyrimidin-4-yl)thiophene-3-carboxamide]"
≤ 100,≤ 100,≤ 100,"Cn1cc(S(=O)(=O)N2CC[C@H](Nc3ncc(C(F)(F)F)c(-c4cc(C(N)=O)c(CC(C)(C)O)s4)n3)[C@H](F)C2)cn1 [Example 46, 5-(2-(((3R,4S)-3-fluoro-1-((1-methyl-1H-pyrazol-4-yl)sulfonyl)piperidin-4-yl)amino)-5-(trifluoromethyl)pyrimidin-4-yl)-2-(2-hydroxy-2-methylpropyl)thiophene-3-carboxamide]"
100 to 500,≤ 100,≤ 100,"Cn1cnc(S(=O)(=O)N2CC[C@H](Nc3ncc(C(F)(F)F)c(-c4cc(C(N)=O)c(CC(C)(C)O)s4)n3)[C@H](F)C2)c1 [Example 47, 5-(2-(((3R,4S)-3-fluoro-1-((1-methyl-1H-imidazol-4-yl)sulfonyl)piperidin-4-yl)amino)-5-(trifluoromethyl)pyrimidin-4-yl)-2-(2-hydroxy-2-methylpropyl)thiophene-3-carboxamide]"
≤ 100,≤ 100,≤ 100,"Cn1cc(S(=O)(=O)N2CC[C@@H](Nc3ncc(C(F)(F)F)c(-c4cc(C(N)=O)c(CC(C)(C)O)s4)n3)[C@H](F)C2)cn1 [Example 48, 5-(2-(((3R,4R)-3-fluoro-1-((1-methyl-1H-pyrazol-4-yl)sulfonyl)piperidin-4-yl)amino)-5-(trifluoromethyl)pyrimidin-4-yl)-2-(2-hydroxy-2-methylpropyl)thiophene-3-carboxamide]"
100 to 500,≤ 100,≤ 100,"Cn1cnc(S(=O)(=O)N2CC[C@@H](Nc3ncc(C(F)(F)F)c(-c4cc(C(N)=O)c(CC(C)(C)O)s4)n3)[C@H](F)C2)c1 [Example 49, 5-(2-(((3R,4R)-3-fluoro-1-((1-methyl-1H-imidazol-4-yl)sulfonyl)piperidin-4-yl)amino)-5-(trifluoromethyl)pyrimidin-4-yl)-2-(2-hydroxy-2-methylpropyl)thiophene-3-carboxamide]"
≤ 100,≤ 100,≤ 100,"Cn1cnc(S(=O)(=O)N2CCC(Nc3ncc(C(F)(F)F)c(-c4cc(C(N)=O)ns4)n3)CC2)c1 [Example 50, 5-(2-((1-((1-methyl-1H-imidazol-4-yl)sulfonyl)piperidin-4-yl)amino)-5-(trifluoromethyl)pyrimidin-4-yl)isothiazole-3-carboxamide]"
≤ 100,≤ 100,≤ 100,"Cn1cc(S(=O)(=O)N2CCC(Nc3ncc(C(F)(F)F)c(-c4cc(C(N)=O)c(CC(C)(C)O)s4)n3)CC2)cn1 [Example 51, 2-(2-hydroxy-2-methylpropyl)-5-(2-((1-((1-methyl-1H-pyrazol-4-yl)sulfonyl)piperidin-4-yl)amino)-5-(trifluoromethyl)pyrimidin-4-yl)thiophene-3-carboxamide]"
100 to 500,≤ 100,100 to 500,"Cc1sc(-c2nc(N[C@H]3CCN(S(C)(=O)=O)C[C@H]3C)ncc2C(F)(F)F)cc1C(N)=O [Example 52, 2-methyl-5-(2-(((3R,4S)-3-methyl-1-(methylsulfonyl)piperidin-4-yl)amino)-5-(trifluoromethyl)pyrimidin-4-yl)thiophene-3-carboxamide]"
> 500,≤ 100,100 to 500,"Cc1sc(-c2nc(N[C@H]3CCN(S(=O)(=O)c4cn(C)cn4)C[C@H]3C)ncc2C(F)(F)F)cc1C#N [Example 53, 2-methyl-5-(2-(((3R,4S)-3-methyl-1-((1-methyl-1H-imidazol-4-yl)sulfonyl)piperidin-4-yl)amino)-5-(trifluoromethyl)pyrimidin-4-yl)thiophene-3-carbonitrile]"
> 500,≤ 100,> 500,"Cc1sc(-c2nc(N[C@H]3CCN(S(C)(=O)=O)C[C@H]3C)ncc2C(F)(F)F)cc1C#N [Example 54, 2-methyl-5-(2-(((3R,4S)-3-methyl-1-(methylsulfonyl)piperidin-4-yl)amino)-5-(trifluoromethyl)pyrimidin-4-yl)thiophene-3-carbonitrile]"
100 to 500,≤ 100,≤ 100,"Cc1sc(-c2nc(NC3CCN(S(=O)(=O)c4c[nH]cn4)CC3)ncc2C(F)(F)F)cc1C#N [Example 55, 5-(2-((1-((1H-imidazol-4-yl)sulfonyl)piperidin-4-yl)amino)-5-(trifluoromethyl)pyrimidin-4-yl)-2-methylthiophene-3-carbonitrile]"
≤ 100,≤ 100,≤ 100,"CC(O)c1cnc(-c2nc(NC3CCN(S(=O)(=O)c4cn[nH]c4)CC3)ncc2C(F)(F)F)s1 (stereo not drawn) [Example 56, 1-(2-(2-((1-((1H-pyrazol-4-yl)sulfonyl)piperidin-4-yl)amino)-5-(trifluoromethyl)pyrimidin-4-yl)thiazol-5-yl)ethan-1-ol]"
≤ 100,≤ 100,≤ 100,"CC(O)c1cnc(-c2nc(NC3CCN(S(=O)(=O)c4c[nH]cn4)CC3)ncc2C(F)(F)F)s1 (stereo not drawn) [Example 57, 1-(2-(2-((1-((1H-imidazol-4-yl)sulfonyl)piperidin-4-yl)amino)-5-(trifluoromethyl)pyrimidin-4-yl)thiazol-5-yl)ethan-1-ol]"
100 to 500,≤ 100,≤ 100,"Cn1cc(S(=O)(=O)N2CCC(Nc3ncc(C(F)(F)F)c(-c4nccs4)n3)CC2)cn1 [Example 58, N-(1-((1-methyl-1H-pyrazol-4-yl)sulfonyl)piperidin-4-yl)-4-(thiazol-2-yl)-5-(trifluoromethyl)pyrimidin-2-amine]"
≤ 100,≤ 100,≤ 100,"Cn1cnc(S(=O)(=O)N2CCC(Nc3ncc(C(F)(F)F)c(-c4nccs4)n3)CC2)c1 [Example 59, N-(1-((1-methyl-1H-imidazol-4-yl)sulfonyl)piperidin-4-yl)-4-(thiazol-2-yl)-5-(trifluoromethyl)pyrimidin-2-amine]"
≤ 100,≤ 100,≤ 100,"Cn1cnc(S(=O)(=O)N2CCC(Nc3ncc(C(F)(F)F)c(-c4ncc(C(O)C(F)(F)F)s4)n3)CC2)c1 (stereo not drawn) [Example 60, 2,2,2-trifluoro-1-(2-(2-((1-((1-methyl-1H-imidazol-4-yl)sulfonyl)piperidin-4-yl)amino)-5-(trifluoromethyl)pyrimidin-4-yl)thiazol-5-yl)ethan-1-ol]"
≤ 100,≤ 100,≤ 100,"Cn1cc(S(=O)(=O)N2CCC(Nc3ncc(C(F)(F)F)c(-c4ncc(C(O)C(F)(F)F)s4)n3)CC2)cn1 (stereo not drawn) [Example 61, 2,2,2-trifluoro-1-(2-(2-((1-((1-methyl-1H-pyrazol-4-yl)sulfonyl)piperidin-4-yl)amino)-5-(trifluoromethyl)pyrimidin-4-yl)thiazol-5-yl)ethan-1-ol]"
≤ 100,≤ 100,≤ 100,"Cn1cc(S(=O)(=O)N2CCC(Nc3ncc(C(F)(F)F)c(-c4ncc(CC(C)(C)O)s4)n3)CC2)cn1 [Example 62, 2-methyl-1-(2-(2-((1-((1-methyl-1H-pyrazol-4-yl)sulfonyl)piperidin-4-yl)amino)-5-(trifluoromethyl)pyrimidin-4-yl)thiazol-5-yl)propan-2-ol]"
